Laboratory results as given in PubChem BioAssay (NCI).
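Each compound was tested at five concentrations against cells in 96-well plates for 48 hours. TGI is the concentration that stops growth completely.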

Experiments:
Test in all cases: NCI anticancer screen, dose series, 48 h
NCI-H460 lung = system: NCI-H460 lung
NCI-H226 lung = system: NCI-H226 lung
SF-268 CNS = system: SF-268 CNS
EKVX NSCLC = system: EKVX NSCLC
MALME-3M melanoma = system: MALME-3M melanoma
SF-539 CNS = system: SF-539 CNS
M19-MEL melanoma = system: M19-MEL melanoma
DMS 273 small cell lung = system: DMS 273 small cell lung
DLD-1 colon = system: DLD-1 colon
HOP-18 NSCLC = system: HOP-18 NSCLC

Measured: TGI

CC(=O)OCC1OC(n2c(=O)n(-c3ccccc3)c(=O)c3ccccc32)C(OC(C)=O)C(OC(C)=O)C1OC(C)=O (stereo not given)
> 100 µM: all assays above
